Article PMC10597649, “Effect of Astragali radix extract on pharmacokinetic behavior of dapagliflozin in healthy and type 2 diabetic rats” (Frontiers in Pharmacology, 2023)
Read-outs that look alike come from different tables or passages of the source.

Tests used:
[1] = Pharmacokinetics of DAPA in healthy rats (alone or co-administered with ARE), plasma by UPLC-MS/MS; type: in vivo, Sprague Dawley (SD) rats; details: for MRT last: read-out: MRT(0-t)
Method: The column temperature was maintained at 40°C. […] The sample injection volume was 2 μL. […] The ion spray voltage was set at […]. […] The source temperature was kept at 200°C. The collision gas was set at low flow rate. […] The samples were processed by the procedure described above.

[2] = for Accuracy (RE, %): rat plasma, n = 6
Method: Stability of DAPA in rat plasma was evaluated by analyzing six replicates of QC samples at low and high concentrations under different conditions. Short-term stability was investigated by keeping the samples at room temperature (25°C) for 12 h and autosampler (4°C) for 24 h, respectively. Freeze-thaw stability was investigated by three freeze-thawing cycles, i.e., the samples were frozen for 7 d at -80°C and thawed 3 h at room temperature for each cycle. Long-term stability was investigated by keeping the samples at -80°C for 1 month.

[3] = ref Kasichayanula et al., 2011, cited from earlier work
[4] = CD group: healthy rats, DAPA alone, single intragastric dose 1.05 mg/kg, n = 6, mean ± SD
[5] = CDA group compared to CD group (healthy rats, with ARE versus DAPA alone)
[6] = CDA group: healthy rats, ARE 300 mg/kg intragastric once a day for 7 days + DAPA single dose 1.05 mg/kg on day 7, n = 6, mean ± SD
[7] = CDA-H group: healthy rats, ARE 900 mg/kg once a day for 7 days + DAPA single dose 1.05 mg/kg on day 7, n=6, mean ± SD
[8] = CDA-L group: healthy rats, ARE 300 mg/kg once a day for 7 days + DAPA single dose 1.05 mg/kg on day 7, n=6, mean ± SD
[9] = male, Sprague-Dawley, rat, plasma, po, 1.05 mg/kg, CD group: healthy rats, DAPA alone, single intragastric dose 1.05 mg/kg, n = 6, mean ± SD
[10] = male, Sprague-Dawley, rat, plasma, po, 1.05 mg/kg, CDA-H group: healthy rats, ARE 900 mg/kg once a day for 7 days + DAPA single dose 1.05 mg/kg on day 7, n=6, mean ± SD
[11] = male, Sprague-Dawley, rat, plasma, po, 1.05 mg/kg, CDA-L group: healthy rats, ARE 300 mg/kg once a day for 7 days + DAPA single dose 1.05 mg/kg on day 7, n=6, mean ± SD
[12] = male, Sprague-Dawley, rat, plasma, po, CDA group: healthy rats, ARE 300 mg/kg intragastric once a day for 7 days + DAPA single dose 1.05 mg/kg on day 7, n = 6, mean ± SD

## CCOc1ccc(Cc2cc([C@@H]3O[C@H](CO)[C@@H](O)[C@H](O)[C@H]3O)ccc2Cl)cc1 [DAPA, Dapagliflozin]
[1]; [4]
  AUC(0-inf): 3868.26±344.05 h*(ng/mL)
  AUC(0-t): 3810.20±343.81 h*(ng/mL)
  CL: 273.31±25.26 (mL/h)/kg
  V: 1.42595 ± 0.16328 L/kg
[1]; [5]
  decrease of MRT: 25.11%
  decrease of t max: 55.91%
  increase of C max: 30.99%
[1]; [6]
  AUC(0-inf): 3845.72±851.15 h*(ng/mL)
  AUC(0-t): 3783.24±852.77 h*(ng/mL)
  C max: 504.33 ± 99.44 ng/mL
  CL: 283.83±58.84 (mL/h)/kg
  V: 1.5704 ± 0.40141 L/kg
[1]; [7]
  AUC(0-inf): 3946.77±756.89 h*(ng/mL)
  AUC(0-t): 3868.01±745.36 h*(ng/mL)
  CL: 273.49±46.98 (mL/h)/kg
  V: 1.55445 ± 0.21969 L/kg
[1]; [8]
  AUC(0-inf): 3845.72±851.15 h*(ng/mL)
  AUC(0-t): 3783.24±852.77 h*(ng/mL)
  CL: 283.83±58.84 (mL/h)/kg
  Cmax: 504.33 ± 99.44 ng/mL
  V: 1.5704 ± 0.40141 L/kg
[1]; between the CD group and the CDA group (healthy rats)
  difference of t 1/2, AUC(0-t), AUC(0-inf), V and CL: no significant difference
[1]; [9]
  Tmax: 5.67 ± 0.82 h
  half-life: 3.61 ± 0.21 h
  MRT last: 6.89 ± 0.28 h
[1]; male, Sprague-Dawley, rat, plasma, po, 1.05 mg/kg, CD group: healthy rats, DAPA alone, single intragastric dose 1.05 mg/kg, n = 6, mean ± SD, read-out: C max
  Cmax: 385 ± 46 ng/mL
[1]; [10]
  Tmax: 2.61 ± 0.9 h
  half-life: 3.96 ± 0.17 h
  MRT last: 5.04 ± 0.27 h
[1]; male, Sprague-Dawley, rat, plasma, po, 1.05 mg/kg, CDA-H group: healthy rats, ARE 900 mg/kg once a day for 7 days + DAPA single dose 1.05 mg/kg on day 7, n=6, mean ± SD, read-out: Cmax
  Cmax: 538 ± 123 ng/mL
[1]; [11]
  Tmax: 2.5 ± 1.22 h
  half-life: 3.8 ± 0.22 h
  MRT last: 5.16 ± 0.36 h
[1]; [12]
  Tmax: 2.5 ± 1.22 h
  half-life: 3.8 ± 0.22 h
  MRT last: 5.16 ± 0.36 h
[2]; freeze thaw (3 cycles, 7 d at -80°C, thawed 3 h at room temperature), 33.5 ng/mL
  Accuracy (RE, %): -4.72%
[2]; freeze thaw (3 cycles, 7 d at -80°C, thawed 3 h at room temperature), 975 ng/mL
  Accuracy (RE, %): -3.71%
[2]; long term (-80°C, 30d), 33.5 ng/mL
  Accuracy (RE, %): -2.96%
[2]; long term (-80°C, 30d), 975 ng/mL
  Accuracy (RE, %): -2.97%
[2]; refrigerator (4°C, 24 h), 33.5 ng/mL
  Accuracy (RE, %): -1.37%
[2]; refrigerator (4°C, 24 h), 975 ng/mL
  Accuracy (RE, %): -2.63%
[2]; room temperature (25°C, 12 h), 33.5 ng/mL
  Accuracy (RE, %): -1.19%
[2]; room temperature (25°C, 12 h), 975 ng/mL
  Accuracy (RE, %): -2.87%
[2]; room temperature (25°C) for 12 h, 4°C for 24 h, -80°C for 30 days, three freeze-thaw cycles
  Stability in the rat plasma: stable
[3]; patients with mild liver function damage versus healthy subjects
  increase of C max: 12%
[3]; patients with moderate liver function damage versus healthy subjects
  increase of C max: 12%
[3]; patients with severe liver function damage versus healthy subjects
  increase of C max: 40%
